{"source": "paper PMC9781916", "about": "“Antipsychotic- and Anxiolytic-like Properties of a Multimodal Compound JJGW08 in Rodents” (International Journal of Molecular Sciences, 2022)", "key": {"[1]": {"target": "human serotonin 5-HT7 receptor (Homo sapiens, UniProt P34969)", "sequence (P34969 whole entry)": "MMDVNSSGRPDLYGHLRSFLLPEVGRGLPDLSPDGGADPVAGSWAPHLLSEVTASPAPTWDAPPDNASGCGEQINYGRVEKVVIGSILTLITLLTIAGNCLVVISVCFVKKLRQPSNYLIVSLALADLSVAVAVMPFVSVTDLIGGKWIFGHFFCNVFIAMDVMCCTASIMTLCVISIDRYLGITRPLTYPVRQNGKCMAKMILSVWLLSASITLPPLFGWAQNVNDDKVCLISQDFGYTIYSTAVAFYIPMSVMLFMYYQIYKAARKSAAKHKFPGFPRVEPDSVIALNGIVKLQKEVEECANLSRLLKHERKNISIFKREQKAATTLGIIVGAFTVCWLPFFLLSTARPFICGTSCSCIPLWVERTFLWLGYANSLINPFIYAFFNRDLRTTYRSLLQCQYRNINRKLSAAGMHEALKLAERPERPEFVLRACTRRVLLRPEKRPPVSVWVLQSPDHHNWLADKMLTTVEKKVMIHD", "test": "Functional assay (cAMP, TR-FRET) in CHO-K1 cells, 5-HT7 receptor", "experimental": "Test and reference compounds were dissolved in DMSO at a concentration of 1 mM. Serial dilutions were prepared in a 96-well microplate in assay buffer, and 8 to 10 concentrations were tested. […] A functional assay based on cells expressing the human 5-HT7 receptor was performed according to the previously described protocol [16, 45]. CHO-K1 cells were transfected with a beta-lactamase (bla) reporter gene under the control of the cyclic AMP response element (CRE) (Life Technologies, Carlsbad, CA, USA)."}, "mice": {"test_system": "mice", "test": "MK-801-induced hyperlocomotion test in mice", "format": "in vivo", "settings": "doses 0.15–2.5 mg/kg ip, MK-801 0.2 mg/kg ip", "description": "Locomotor activity was recorded in actometers separately for each mouse. After 30 min of adaptation, the number of crossings of photo beams was measured during 60 min. […] MK-801 (0.2 mg/kg, ip) was administered 15 min before the experiment, while amphetamine (2.5 mg/kg) was administered subcutaneously (sc) 30 min before the experiment. […] Values are expressed as means ± SD, n = 8–10 mice per group. Statistical analysis: one-way ANOVA (Newman–Keuls post hoc), * p < 0.05, ** p < 0.01, *** p < 0.001.\nThe test was performed according to the method described by Carlsson et al.. The mobility of the animals was measured in actometers, i.e., in plastic Opto M3 cages (22 × 12 × 13 cm) connected to a computer with MultiDevice Software v.1.30 (Columbus Instruments, Columbus, OH, USA). The experimental cages were equipped with infrared sources on one side and sensors receiving the emitted rays on the other side of the cage. The crossing of each beam of infrared rays was classified as motor activity. The animals were placed individually in experimental cages immediately after administration of the tested compound, 30 min before the start of the test, to adapt to the new conditions and exclude the occurrence of hyperactivity caused by the change of the environment. Spontaneous locomotor activity was measured every 5 min for 60 min. Mice received two injections: of the tested compound or reference substance (30 min before the test, ip) and of amphetamine (2.5 mg/kg, 30 min before the test, sc) or MK-801 (0.2 mg/kg, 15 min before the test, ip). Control groups received an injection of saline and amphetamine or MK-801, or two injections of saline, respectively. Olanzapine was used as a reference compound."}, "5-HT2A receptors": {"test_system": "5-HT2A receptors", "set-up": "method as in doi:10.1016/j.molstruc.2022.134585", "settings": "cited from earlier work"}, "rats": {"test_system": "rats", "test": "Prepulse inhibition test after MK-801 in rats", "format": "in vivo", "settings": "3.0–30 mg/kg ip, MK-801 0.6 mg/kg ip", "description": "Figure 5 The influence of JJGW08 on startle response inhibition (Panel (A)) and changes in startle response (Panel (B)) in prepulse inhibition test after MK-801 administration in rats. The test was conducted in the soundproof apparatus, and the startle response amplitude was recorded. The experimental session (after a 5-min habituation period) had strictly defined parameters (prepuls-and-pulse trials: 84/120–prepuls 84 dB (20 ms), pulse 120 dB (40 ms); 90/120–prepuls 90 dB (20 ms), pulse 120 dB (40 ms), sham stimulus (70 dB, 40 ms)), and the startle intensity for each stimulus used in the session was measured. JJGW08 was administered ip 30 min before the test, while MK-801 (0.6 mg/kg) was administered ip 15 min before the start of the experiment. The control group received 0.9% NaCl solution (ip) and MK-801 (0.6 mg/kg, ip). Values are expressed as mean ± SD, n = 7–8 rats per group. […]\nThe study was conducted as described in detail by Acewicz and colleagues. […] Startle responses, reflecting the motion of animals in the cylinder following the acoustic stimulus, were detected by a piezoelectric transducer mounted below the frame. […] Sound levels in the chambers were measured and calibrated with a sound meter. […] Startle responses were measured for 100 ms after the onset of the last stimulus within each trial. […]"}, "[2]": {"settings": "5-HT7, antagonist mode, 10 nM serotonin as reference agonist"}}, "data": [{"smiles": "COc1ccccc1N1CCN(CCCCCOc2ccccc2C(N)=O)CC1.Cl", "note": "[JJGW08, 2-{5-[4-(2-metoksyfenylo)piperazin-1-ylo]pentoxy}benzamide hydrochloride]", "values": [{"measurement": "Agonist Mode Emax%", "setting": "[1]; 5-HT7, agonist mode", "value": 1, "unit": "%"}, {"measurement": "Antagonist Mode Emax%", "setting": "[1]; [2]", "value": 4, "unit": "%"}, {"measurement": "Antagonist Mode pIC50 ± Range", "setting": "[1]; [2]", "value": "6.4 ± 0.1"}, {"measurement": "antagonistic properties (in words)", "setting": "[1]; 5-HT7 functional assay", "value": "very weak antagonistic properties"}, {"measurement": "Kb", "setting": "[1]; read-out: Antagonist Mode Kb, 5-HT7, antagonist mode, Cheng equation", "value": 190, "unit": "nM"}, {"measurement": "reduction of MK-801-induced hyperactivity", "setting": "mice", "value": "24–71%"}, {"measurement": "affinity (in words)", "setting": "5-HT2A receptors", "value": "moderate affinity"}, {"measurement": "reversal of deficits in sensorimotor gating induced by MK-801 (in words)", "setting": "rats", "value": "did not reverse the deficits"}, {"measurement": "startle reaction inhibition (%PPI)", "setting": "rats; prepulse 84 or 90 dB", "value": "−0.2 to 24.4", "unit": "%"}]}]}
